The record followed here is PubChem BioAssay (NCI).

Several values for one entry are separate records, joined by “and”; a condition that tells them apart may be missing. Identical values can stand only once.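 How tested: cells in 96-well plates exposed to compound for 48 hours at five concentrations. The concentration for 50% growth inhibition is given as GI50. TGI marks complete inhibition of growth.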

Some test systems named below: 786-0 renal; A498 renal; COLO 205 colon; HCC-2998 colon; LOX IMVI melanoma; M14 melanoma; NCI-H460 lung; NCI/ADR-RES ovarian; SF-539 CNS; SW-620 colon.
Common to all, as to experiment: NCI-60 cell line screen, 48 h

For the compound `CC1=C(C(=O)Nc2cc(F)c(F)cc2F)C(c2ccc(N(C)C)cc2)C(C(=O)Nc2cc(F)c(F)cc2F)=C(C)N1`, the TGI is over 100 µM in the assay on 786-0 renal; 80.5 µM in the assay with A498 renal; over 100 µM with COLO 205 colon; over 83 µM in the assay with HCC-2998 colon; over 100 µM in the assay with LOX IMVI melanoma; over 100 µM in the assay on M14 melanoma. The TGI in the assay with NCI-H460 lung is over 100 µM; with NCI/ADR-RES ovarian, over 100 µM; in the assay with SF-539 CNS it was over 74.1 µM; in the assay with SW-620 colon, over 100 µM. Moreover, in the assay with NCI/ADR-RES ovarian, the GI50 was 41.2 µM.

Take `Cc1nc2sc(C(=O)Nc3cccc4c3OCCO4)c(N)c2cc1C(C)O` (stereo not given): the GI50 in the assay on 786-0 renal was 5000 nM; with A498 renal, 2160 nM; in the assay with COLO 205 colon, 4.27 µM; in the assay with HCC-2998 colon, 13.7 µM; with LOX IMVI melanoma, 5260 nM; with M14 melanoma, 3.01 µM. In addition, the GI50 is 3.58 µM with NCI-H460 lung, 3.28 µM in the assay with NCI/ADR-RES ovarian, 2960 nM in the assay on SF-539 CNS and 3340 nM with SW-620 colon. The TGI with 786-0 renal is over 100 µM; with A498 renal it was 9.05 µM; in the assay with COLO 205 colon it was over 100 µM; in the assay on HCC-2998 colon it was over 100 µM; with LOX IMVI melanoma, over 100 µM; in the assay on M14 melanoma, over 100 µM. The TGI was over 100 µM in the assay with NCI-H460 lung, over 100 µM in the assay with NCI/ADR-RES ovarian, 13.8 µM in the assay with SF-539 CNS and over 100 µM with SW-620 colon.

For the compound `O=C1c2c[n+](Cc3ccccc3)ccc2-c2nc3ccccc3c3ccnc1c23`, the GI50 with 786-0 renal is 829 nM; in the assay with A498 renal, 532 nM; in the assay on COLO 205 colon, 0.409 µM; in the assay on HCC-2998 colon, 0.609 µM; with LOX IMVI melanoma, 583 nM; in the assay with M14 melanoma, 0.208 µM. Further, the GI50 was 0.0673 µM with NCI-H460 lung, 7.3 µM with NCI/ADR-RES ovarian, 545 nM with SF-539 CNS and 450 nM in the assay on SW-620 colon. Moreover, the TGI in the assay on 786-0 renal amounted to 2.76 µM; in the assay on A498 renal, 1.97 µM; with COLO 205 colon it was 1.11 µM; with HCC-2998 colon it was 1.74 µM; with LOX IMVI melanoma, 2.02 µM; in the assay with M14 melanoma it was 0.969 µM. The TGI was found to be 0.499 µM in the assay on NCI-H460 lung, 33.3 µM with NCI/ADR-RES ovarian, 1.17 µM in the assay with SF-539 CNS and 3.71 µM in the assay on SW-620 colon.

Consider `CC(=O)OC1C(C)OC(Oc2c(-c3ccc(O)cc3)oc3cc(O)cc(O)c3c2=O)C(O)C1OC(C)=O` (stereo not given), for which the GI50 was 48200 nM in the assay with 786-0 renal; over 52400 nM in the assay with A498 renal; over 67.3 µM in the assay with COLO 205 colon; 21.9 µM with HCC-2998 colon; 21000 nM in the assay with LOX IMVI melanoma; 33.5 µM with M14 melanoma. Besides, the GI50 in the assay on NCI-H460 lung is 32.5 µM; with NCI/ADR-RES ovarian, over 100 µM; in the assay with SF-539 CNS it was 29100 nM; in the assay with SW-620 colon, 35800 nM. Further, the TGI is over 100 µM in the assay on 786-0 renal; over 100 µM with A498 renal; over 100 µM in the assay with COLO 205 colon; 55.2 µM in the assay on HCC-2998 colon; 50.2 µM with LOX IMVI melanoma; over 100 µM in the assay with M14 melanoma. Moreover, the TGI with NCI-H460 lung, in the assay on NCI/ADR-RES ovarian, in the assay with SF-539 CNS and in the assay with SW-620 colon was over 100 µM in each case.

As to `COc1cccc(C2=C(c3cn(C)c4c(C)cccc34)C(=O)NC2=O)c1`, the GI50 was 15800 nM in the assay with 786-0 renal; 5890 nM with A498 renal; over 25 µM with COLO 205 colon; over 25 µM in the assay with HCC-2998 colon; over 25000 nM in the assay on LOX IMVI melanoma; over 25 µM in the assay with M14 melanoma. Further, the GI50 was over 25 µM in the assay on NCI-H460 lung, over 21.4 µM with NCI/ADR-RES ovarian, over 25000 nM in the assay on SF-539 CNS and over 25000 nM in the assay with SW-620 colon. The TGI in the assay with 786-0 renal is over 25 µM; in the assay with A498 renal, over 21.9 µM; in the assay with COLO 205 colon it was over 25 µM; in the assay on HCC-2998 colon, over 25 µM; in the assay on LOX IMVI melanoma, over 25 µM; in the assay on M14 melanoma it was over 25 µM. For the same compound, the TGI with NCI-H460 lung, in the assay on NCI/ADR-RES ovarian, in the assay on SF-539 CNS and in the assay with SW-620 colon was over 25 µM in each case.

Regarding `COc1cc(/C=C/C(=O)c2cccc(-n3cc(-c4ccccc4)[nH]c3=O)c2)ccc1O`, the GI50 is 2370 nM in the assay with 786-0 renal; 1680 nM in the assay with A498 renal; 3.85 µM with COLO 205 colon; 1.92 µM in the assay on HCC-2998 colon; 2500 nM in the assay on LOX IMVI melanoma; 3.57 µM in the assay on M14 melanoma. Besides, the GI50 with NCI-H460 lung is 3.01 µM; with NCI/ADR-RES ovarian, 3.5 µM; with SF-539 CNS it was 2190 nM; in the assay with SW-620 colon, 2480 nM. Besides, the TGI with 786-0 renal stood at 7.93 µM; in the assay with A498 renal, 3.87 µM; with COLO 205 colon, 9.91 µM; in the assay on HCC-2998 colon, 4.21 µM; in the assay with LOX IMVI melanoma it was 9.16 µM; with M14 melanoma, 18 µM. In addition, the TGI with NCI-H460 lung is 8.68 µM; with NCI/ADR-RES ovarian, over 43 µM; in the assay on SF-539 CNS it was 5.78 µM; in the assay with SW-620 colon, 6.3 µM.

On to `CCOC(=O)c1ccc(N[C@@H]2c3cc4c(cc3C(c3cc(OC)c(O)c(OC)c3)[C@H]3C(=O)OCC32)OCO4)cc1` (stereo not given in full), for which the GI50 with 786-0 renal was 199 nM and 492 nM; in the assay on A498 renal, 332 nM; in the assay with COLO 205 colon it was 0.833 µM; with HCC-2998 colon it was 0.868 µM; with LOX IMVI melanoma it was 217 nM and 118 nM; with M14 melanoma, 0.353 µM. Besides, the GI50 is 0.0385 µM in the assay with NCI-H460 lung, 340 nM with SF-539 CNS and 536 nM with SW-620 colon. Also, the TGI with 786-0 renal is 0.66 µM and 2.12 µM; with A498 renal, 1.92 µM; in the assay with COLO 205 colon, 7.68 µM; in the assay with HCC-2998 colon, 3.69 µM; in the assay with LOX IMVI melanoma, 1.61 µM; in the assay on M14 melanoma it was 4.32 µM. Besides, the TGI in the assay with NCI-H460 lung is 1.33 µM; in the assay on NCI/ADR-RES ovarian, 6.41 µM; with SF-539 CNS, 0.951 µM and 1.97 µM; with SW-620 colon it was 28.4 µM.

Regarding `Nc1ncnc2c1ncn2C1OC(F)(COS(N)(=O)=O)C(O)C1O` (stereo not given), the GI50 in the assay on 786-0 renal is over 100000 nM; with A498 renal, over 100000 nM; in the assay with COLO 205 colon it was over 100 µM; in the assay on HCC-2998 colon, over 100 µM; in the assay with LOX IMVI melanoma it was over 100000 nM; in the assay with M14 melanoma, over 100 µM. Further, the GI50 in the assay with NCI-H460 lung was over 100 µM; in the assay with NCI/ADR-RES ovarian, over 100 µM; in the assay with SF-539 CNS, over 100000 nM; with SW-620 colon, over 100000 nM. Also, the TGI in the assay on 786-0 renal, in the assay on A498 renal, in the assay on COLO 205 colon, in the assay with HCC-2998 colon, with LOX IMVI melanoma and in the assay on M14 melanoma was over 100 µM throughout. Moreover, the TGI in the assay on NCI-H460 lung, with NCI/ADR-RES ovarian, with SF-539 CNS and with SW-620 colon was over 100 µM throughout.
